From paper PMC12846677 (Viruses, 2025)
Read-outs that look alike come from different tables or passages of the source.

Experiments:
NL4-3 = test: microbe, parasite or virus in culture; type: cell-based; conditions: Human immunodeficiency virus 1, NL43; NL4-3, p24
HIV-1KIZ011 (CRF07_BC) = test: microbe, parasite or virus in culture; conditions: Human immunodeficiency virus 1, PBMC
HIV-1WAN (CRF01_AE) = test: microbe, parasite or virus in culture; conditions: Human immunodeficiency virus 1, PBMC
HIV-1DRACC017 = test: microbe, parasite or virus in culture; type: cell-based; conditions: for EC50: Human immunodeficiency virus 1, HIV-1DRACC017, p24
HIV-1IIIB [1] = test: microbe, parasite or virus in culture; conditions: Human immunodeficiency virus 1, C8166, HIV-1IIIB
HIV-1A17 = test: microbe, parasite or virus in culture; conditions: Human immunodeficiency virus 1, C8166
[2] = Cytotoxicity MTT assay in MT4 cells; type: cell-based; conditions: human
HIV-1IIIB [3] = test: qPCR determination of Late-RT, 2-LTR and Alu-LTR in infected C8166 cells; type: cell-based
NL4-3IN-R263K = test: microbe, parasite or virus in culture; type: cell-based; conditions: Human immunodeficiency virus 1
[4] = test system: pNL4-3gp41(36G) V38A, N42T; conditions: C8166, p24
[5] = Cytotoxicity MTT assay in PBMCs; type: cell-based; conditions: human, peripheral blood mononuclear cells (PBMCs), PBMC
HIV-1IIIB [6] = test: HIV-1IIIB-induced cytopathic effect (syncytia counting) in C8166 cells; conditions: Human immunodeficiency virus 1, C8166
HIV-1IIIB [7] = test: Combined antiviral activity assay (p24 ELISA, CompuSyn); type: cell-based
HIV-1_4755-5 = test: microbe, parasite or virus in culture; conditions: Human immunodeficiency virus 1, C8166
[8] = Cytotoxicity MTT assay in C8166 cells; type: cell-based; conditions: human
HIV-1TC-1 (CRF01_AE) = test: microbe, parasite or virus in culture; conditions: Human immunodeficiency virus 1, PBMC
HIV-1IIIB [9] = test: microbe, parasite or virus in culture; type: cell-based; conditions: Human immunodeficiency virus 1, MT4, MTT
[10] = p24 (Table 4, resistance study)

C[C@@H]1CCO[C@H]2Cn3cc(C(=O)NCc4ccc(F)cc4F)c(=O)c(O)c3C(=O)N12 [DTG, Dolutegravir]
EC50 (NL4-3): 2.41 ± 0.43 nM
EC50 (HIV-1KIZ011 (CRF07_BC)): 0.28 ± 0.03 nM
EC50 (HIV-1WAN (CRF01_AE)): 8.23 ± 0.2 nM
EC50 (HIV-1DRACC017): > 5000 nM
EC50 (HIV-1IIIB [1]; C8166, p24 (Table 1)): 0.64 ± 0.07 nM
EC50 (HIV-1IIIB [1]; C8166, p24, 20% human serum): 33.6 ± 5.9 nM
EC50 (HIV-1IIIB [1]; [10]): 1.18 ± 0.15 nM
EC50 (HIV-1A17): 4.78 ± 5.13 nM
CC50 at 3 d [2]: 24910 ± 10 nM
Late-RT level versus positive control (PC) group (HIV-1IIIB [3]; C8166, HIV-1IIIB MOI 0.5, 100 nM ACC017, 4-8 h): no significant difference compared with the PC group
2-LTR level (nuclear entry) (HIV-1IIIB [3]; C8166, HIV-1IIIB MOI 0.5, 100 nM ACC017, 8, 12, 24 h): unable to block the nuclear entry process
Alu-LTR level (integrated provirus) (HIV-1IIIB [3]; C8166, HIV-1IIIB MOI 0.5, 100 nM ACC017, 24 h, nested PCR): significantly reduced
EC50 (NL4-3IN-R263K): 32.2 ± 3.74 nM
EC50 [4]: 1.95 ± 0.12 nM
CC50 at 7 d [5]: 14600 nM
EC50 (HIV-1IIIB [6]): 0.73 ± 0.02 nM
DRI Value ED75 (HIV-1IIIB [7]; combination ACC017 + DTG): 1.40
DRI Value ED90 (HIV-1IIIB [7]; combination ACC017 + DTG): 1.40
DRI Value ED95 (HIV-1IIIB [7]; combination ACC017 + DTG): 1.60
DRI Value ED75 (HIV-1IIIB [7]; combination DTG + 3TC): 3.00
DRI Value ED90 (HIV-1IIIB [7]; combination DTG + 3TC): 4.01
DRI Value ED95 (HIV-1IIIB [7]; combination DTG + 3TC): 4.98
DRI Value ED75 (HIV-1IIIB [7]; combination DTG + ACC007): 3.00
DRI Value ED90 (HIV-1IIIB [7]; combination DTG + ACC007): 4.13
DRI Value ED95 (HIV-1IIIB [7]; combination DTG + ACC007): 5.21
DRI Value ED75 (HIV-1IIIB [7]; combination DTG + FTC + TAF): 3.25
DRI Value ED90 (HIV-1IIIB [7]; combination DTG + FTC + TAF): 4.37
DRI Value ED95 (HIV-1IIIB [7]; combination DTG + FTC + TAF): 5.41
EC50 (HIV-1_4755-5): 9.96 ± 2.78 nM
CC50 at 3 d [8]: 20340 ± 70 nM
EC50 (HIV-1TC-1 (CRF01_AE)): 0.31 ± 0.18 nM
EC50 (HIV-1IIIB [9]): 0.05144 ± 0.00014 nM

CCn1c(C(=O)c2cc(C)cc(C#N)c2)c(C(C)C)c(=O)[nH]c1=O [ACC007, Ainuovirine]
DRI Value ED75 (HIV-1IIIB [7]; combination ACC017 + ACC007): 3.77
DRI Value ED90 (HIV-1IIIB [7]; combination ACC017 + ACC007): 6.12
DRI Value ED95 (HIV-1IIIB [7]; combination ACC017 + ACC007): 8.66
DRI Value ED75 (HIV-1IIIB [7]; combination DTG + ACC007): 4.66
DRI Value ED90 (HIV-1IIIB [7]; combination DTG + ACC007): 7.34
DRI Value ED95 (HIV-1IIIB [7]; combination DTG + ACC007): 10.16

Nc1ccn([C@@H]2CS[C@H](CO)O2)c(=O)n1 [3TC, Lamivudine]
EC50 (NL4-3): 198 ± 101 nM
EC50 (HIV-1DRACC017): 322 ± 34.6 nM
FC (Fold Change) EC50 (HIV-1DRACC017)/EC50 (HIV-1IIIB) (HIV-1DRACC017; p24): 1.78
EC50 (HIV-1IIIB [1]; [10]): 181 ± 41.5 nM
EC50 (NL4-3IN-R263K; read-out: EC50): 180 ± 38.5 nM
DRI Value ED75 (HIV-1IIIB [7]; combination ACC017 + 3TC): 6.21
DRI Value ED90 (HIV-1IIIB [7]; combination ACC017 + 3TC): 7.90
DRI Value ED95 (HIV-1IIIB [7]; combination ACC017 + 3TC): 9.30
DRI Value ED75 (HIV-1IIIB [7]; combination DTG + 3TC): 5.03
DRI Value ED90 (HIV-1IIIB [7]; combination DTG + 3TC): 6.79
DRI Value ED95 (HIV-1IIIB [7]; combination DTG + 3TC): 8.33
